Literature values, collected in patent US7935730B2, “Method of enhancing reproductive function of mammals by feeding of conjugated linoleic acids” (Cornell Research Foundation, Inc., priority 2006, dated 2011).

How the values were obtained:
[1] = system: young rodents; conditions: proposed
[2] = in vivo

## CCCCCC/C=C/C=C\CCCCCCCC(=O)O [cis-9, trans-11 CLA]
[1]
  feed efficiency and growth: enhance
[2]
  effect on milk and body fat: no effect

## CCCCC/C=C\C=C\CCCCCCCCC(=O)O [trans-10, cis-12 CLA]
[2]
  effect on milk and body fat: reduction
